Literature values in patent US20230309840A1, “TARGETING ABNORMAL CELL POPULATIONS FOR APOPTOSIS” (priority 2020, published 2023).

How the values were obtained:
[1] = test system: senescent human fibroblasts; settings: at 100 μM
cancer cells = settings: for anti-cancer activity: compared with curcumin
[2] = in vivo
Drosophila melanogaster = settings: in vivo
Caenorhabditis elegans = settings: in vivo
[3] = test system: airway inflammation and oxidative stress
[4] = test system: prostate cancer (Pica) cell
tumor = settings: tumor-bearing mouse model, vs free cisplatin

## C[C@H]1[C@H](OC(=O)CCC(=O)O)O[C@@H]2O[C@@]3(C)CC[C@H]4[C@H](C)CC[C@@H]1[C@@]24OO3 [Artesunate]
Cancer cell lines
  effect on cancer cell lines: cytotoxic effects

## CC[C@H]1OC(=O)[C@H](C)[C@@H](O[C@H]2C[C@@](C)(OC)[C@@H](O)[C@H](C)O2)[C@H](C)[C@@H](O[C@@H]2O[C@H](C)C[C@H](N(C)C)[C@H]2O)[C@](C)(O)C[C@@H](C)CN(C)[C@H](C)[C@@H](O)[C@]1(C)O [Azithromycin]
[1]
  elimination of senescent cells: selectively eliminated large numbers of senescent cells
Control cells
  effect on control cells: without affecting control cells

## COc1ccc(/C=C/C(=O)CC(=O)/C=C/c2ccc(OC)c(OC)c2)cc1OC [DIMC, dimethoxycurcumin]
Cancer cells
  anti-cancer activity: better anti-cancer activities than curcumin

## O=C1/C(=C/c2ccccc2F)CNC/C1=C\c1ccccc1F [EF24]
Cancer cells
  anti-cancer activity: more efficacious against various cancer cells
Cancer cells; relative to curcumin
  potency in inducing cancer cell death: 10 fold
Senescent cells; combined with Navitoclax
  killing of senescent cells in combination: synergistically kill senescent cells
Senescent cells; variety of senescent cells
  cell viability of senescent cells: selectively decrease the cell viability

## CC1(C)C=C(CN2C/C(=C\c3ccc(F)cc3)C(=O)/C(=C/c3ccc(F)cc3)C2)C(C)(C)N1O [HO-3867]
Cancer cells
  anti-cancer activity: better anti-cancer activities than curcumin

## O=c1c(O)c(-c2ccc(O)c(O)c2)oc2cc(O)cc(O)c12 [Quercetin]
other
  solubility in water: poorly soluble in water
[2]
  bioavailability: very low

## CC[C@H]1OC(=O)[C@H](C)[C@@H](O[C@H]2C[C@@](C)(OC)[C@@H](O)[C@H](C)O2)[C@H](C)[C@@H](O[C@@H]2O[C@H](C)C[C@H](N(C)C)[C@H]2O)[C@](C)(O)C[C@@H](C)/C(=N\OCOCCOC)[C@H](C)[C@@H](O)[C@]1(C)O [Roxithromycin]
[1]
  elimination of senescent cells: selectively eliminated large numbers of senescent cells

## COc1cc(/C=C/C(=O)CC(=O)/C=C/c2ccc(O)c(OC)c2)ccc1O [curcumin, Curcumin]
other
  solubility in water: low aqueous solubility
[2]
  bioavailability: poor oral bioavailability
Drosophila melanogaster
  lifespan and health span: prolong lifespan and extend health span
Caenorhabditis elegans
  lifespan and health span: prolong lifespan and extend health span

## [HH] [hydrogen gas, hydrogen]
[3]; bronchial alveolar lavage fluid, inhalation
  number of total cells, eosinophils, and lymphocytes: significantly reduced
[3]; following inhalation
  IL-4 serum level: significantly decreased
[3]; inhalation
  activity of superoxide dismutase: markedly upregulated
  increased level of malondialdehyde and myeloperoxidase: significantly attenuated
  level of IL-4, IL-13, TNF-α and chemokine (C-X-C motif) ligand 15: increased the level

## CC(C)=CCC/C(C)=C/CC/C(C)=C/CC[C@]1(C)CCc2cc(O)c(C)c(C)c2O1 [γ-Tocotrienols]
[4]
  inhibition of cell proliferation and invasion: potent and specific inhibitor

## Tf-cisplatin complex: transferrin (Tf) conjugated cisplatin
tumor
  toxicity in other tissues: less toxicity in other tissues
  tumor growth inhibition: inhibited tumor growth in vivo more effectively than free cisplatin
